According to patent US8188078B2 (Sanofi-Aventis, priority 2007, dated 2012):

Key:
c-MET = target: T1, c-MET (Homo sapiens, UniProt P08581); test: Test A: HTRF Met test in 96-well format; type: biochemical
T1 construct: The recombinant DNA His-Tev-MET (956-1390) in pFastBac(Invitrogen); His (N, cleaved yes); Tev (TEV protease site) (N, cleaved yes); made in house; host or cells: SF21 insect cells (baculovirus, pFastBac)
In short: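 The kinase was the Sf21-expressed MET cytoplasmic domain (956–1390), His tag removed, used at 5 nM with compound (0.17 nM–10 µM, 3% DMSO) in 10 mM MOPS pH 7.4. Poly-GAT 1 µg/ml, 10 µM ATP and 5 mM MgCl2 reacted 10 min at RT. After an EDTA stop, phosphotyrosine was detected by HTRF (665/620 ratio).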

MKN45 cells = test: Test D: cellular proliferation by 14C-thymidine pulse, MKN45 cells; type: cell-based; conditions: cell line not stated (HCT116 or MKN45)
In short: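 MKN45 cells (7500/well, RPMI + 10% foetal calf serum) treated with 10 concentrations, 10000 to 0.3 nM in 3-fold steps, duplicate. 14C-thymidine (0.1 μCi/well) added at 72 h; incorporation counted after 24 h pulse, 96 h total treatment.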

[1] = Homo sapiens, MKN-45, cellular proliferation by 14C-thymidine pulse

T1 sequence (P08581 956-1390): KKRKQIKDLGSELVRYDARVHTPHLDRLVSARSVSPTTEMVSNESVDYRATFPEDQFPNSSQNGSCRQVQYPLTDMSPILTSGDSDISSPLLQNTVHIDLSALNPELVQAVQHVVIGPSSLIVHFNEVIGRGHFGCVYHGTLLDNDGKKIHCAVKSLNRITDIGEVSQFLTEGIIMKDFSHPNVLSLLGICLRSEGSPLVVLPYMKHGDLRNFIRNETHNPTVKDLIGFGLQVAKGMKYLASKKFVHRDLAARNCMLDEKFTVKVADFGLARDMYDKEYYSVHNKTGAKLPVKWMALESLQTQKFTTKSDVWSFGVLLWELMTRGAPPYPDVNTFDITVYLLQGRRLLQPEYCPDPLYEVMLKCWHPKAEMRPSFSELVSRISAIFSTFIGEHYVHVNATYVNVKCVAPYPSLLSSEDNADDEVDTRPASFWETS

CC(Oc1cc2sc(NC(=O)NCCN)nc2cc1F)c1c(Cl)ccc(F)c1Cl (centres unmarked) [Example 88, 1-(2-aminoethyl)-3-{6-[1-(2,6-dichloro-3-fluorophenyl)ethoxy]-5-fluoro-1,3-benzothiazol-2-yl}urea]
IC50 (c-MET): < 100 nM | IC50 (MKN45 cells; [1]): 500 to 10000 nM

CCN(CC)CCCNC(=O)Nc1nc2ccc(OC(C)c3c(Cl)ccc(F)c3Cl)cc2s1 (centres unmarked) [Example 83, 1-{6-[1-(2,6-dichloro-3-fluorophenyl)ethoxy]-1,3-benzothiazol-2-yl}-3-[3-(diethylamino)propyl]urea]
IC50 (c-MET): < 100 nM | IC50 (MKN45 cells; [1]): 500 to 10000 nM

CC(Oc1cc2sc(NC(=O)NCCC3CCCN3C)nc2cc1F)c1c(Cl)ccc(F)c1Cl (centres unmarked) [Example 79, 1-{6-[1-(2,6-dichloro-3-fluorophenyl)ethoxy]-5-fluoro-1,3-benzothiazol-2-yl}-3-[2-(1-methylpyrrolidin-2-yl)ethyl]urea]
IC50 (c-MET): < 100 nM | IC50 (MKN45 cells; [1]): 500 to 10000 nM

CC(Oc1cc2sc(NC(=O)NCCN3CCN(C)CC3)nc2cc1F)c1c(Cl)ccc(F)c1Cl (centres unmarked) [Example 75, 1-{6-[1-(2,6-dichloro-3-fluorophenyl)ethoxy]-5-fluoro-1,3-benzothiazol-2-yl}-3-[2-(4-methylpiperazin-1-yl)ethyl]urea]
IC50 (c-MET): < 100 nM | IC50 (MKN45 cells; [1]): < 500 nM

O=C(Nc1nc2ccc(OCc3c(Cl)cccc3Cl)cc2[nH]1)C1CC1 [Example 7, N-{6-[(2,6-dichlorobenzyl)oxy]-1H-benzimidazol-2-yl}cyclopropane carboxamide]
IC50 (c-MET): < 100 nM | IC50 (MKN45 cells; [1]): < 500 nM

CCN(CC)CCNC(=O)Nc1nc2ccc(OC(C)c3c(Cl)ccc(F)c3Cl)cc2s1 (centres unmarked) [Example 82, 1-{6-[1-(2,6-dichloro-3-fluorophenyl)ethoxy]-1,3-benzothiazol-2-yl}-3-[2-(diethylamino)ethyl]urea]
IC50 (c-MET): < 100 nM | IC50 (MKN45 cells; [1]): 500 to 10000 nM

CC(Oc1cc2sc(NC(=O)NCCN3CCN(C)CC3)nc2cc1F)c1c(Cl)ccc(F)c1Cl (single isomer, unassigned) [Example 76, 1-{6-[(1R*)-1-(2,6-dichloro-3-fluorophenyl)ethoxy]-5-fluoro-1,3-benzothiazol-2-yl}-3-[2-(4-methylpiperazin-1-yl)ethyl]urea]
IC50 (c-MET): < 100 nM | IC50 (MKN45 cells; [1]): < 500 nM

CC(Oc1cc2[nH]c(NC(=O)NCCN3CCOCC3)nc2cc1F)c1c(Cl)ccc(F)c1Cl (centres unmarked) [Example 6, 1-{6-[1-(2,6-dichloro-3-fluorophenyl)ethoxy]-5-fluoro-1H-benzimidazol-2-yl}-3-(2-morpholin-4-ylethyl)urea]
IC50 (c-MET): < 100 nM | IC50 (MKN45 cells; [1]): 500 to 10000 nM

COCCNC(=O)Nc1nc2cc(F)c(OC(C)c3c(Cl)ccc(F)c3Cl)cc2s1 (centres unmarked) [Example 81, 1-{6-[1-(2,6-dichloro-3-fluorophenyl)ethoxy]-5-fluoro-1,3-benzothiazol-2-yl}-3-(2-methoxyethyl)urea]
IC50 (c-MET): < 100 nM | IC50 (MKN45 cells; [1]): 500 to 10000 nM

CC(Oc1cc2sc(NC(=O)NCCN(C)Cc3ccccc3)nc2cc1F)c1c(Cl)ccc(F)c1Cl (centres unmarked) [Example 94, 1-{2-[benzyl(methyl)amino]ethyl}-3-{6-[1-(2,6-dichloro-3-fluorophenyl)ethoxy]-5-fluoro-1,3-benzothiazol-2-yl}urea]
IC50 (c-MET): < 100 nM | IC50 (MKN45 cells; [1]): 500 to 10000 nM

CC(Oc1cc2sc(NC(=O)NCCN3CCCC3)nc2cc1F)c1c(Cl)ccc(F)c1Cl (centres unmarked) [Example 84, 1-{6-[1-(2,6-dichloro-3-fluorophenyl)ethoxy]-5-fluoro-1,3-benzothiazol-2-yl}-3-[2-(pyrrolidin-1-yl)ethyl]urea]
IC50 (c-MET): < 100 nM | IC50 (MKN45 cells; [1]): < 500 nM

CC(Oc1cc2sc(NC(=O)NCCOCc3ccccc3)nc2cc1F)c1c(Cl)ccc(F)c1Cl (centres unmarked) [Example 97, 1-[2-(benzyloxy)ethyl]-3-{6-[1-(2,6-dichloro-3-fluorophenyl)ethoxy]-5-fluoro-1,3-benzothiazol-2-yl}urea]
IC50 (c-MET): < 100 nM | IC50 (MKN45 cells; [1]): 500 to 10000 nM

CC(Oc1cc2sc(NC(=O)NCCO)nc2cc1F)c1c(Cl)ccc(F)c1Cl (centres unmarked) [Example 98, 1-{6-[1-(2,6-dichloro-3-fluorophenyl)ethoxy]-5-fluoro-1,3-benzothiazol-2-yl}-3-(2-hydroxyethyl)urea]
IC50 (c-MET): < 100 nM | IC50 (MKN45 cells; [1]): 500 to 10000 nM

CC(Oc1cc2sc(NC(=O)NCCN3CCN(C)CC3)nc2cc1F)c1c(Cl)ccc(F)c1Cl (single isomer, unassigned) [Example 77, 1-{6-[(1S*)-1-(2,6-dichloro-3-fluorophenyl)ethoxy]-5-fluoro-1,3-benzothiazol-2-yl}-3-[2-(4-methylpiperazin-1-yl)ethyl]urea]
IC50 (c-MET): < 100 nM | IC50 (MKN45 cells; cellular proliferation by 14C-thymidine pulse): 500 to 10000 nM

CNCCNC(=O)Nc1nc2cc(F)c(OC(C)c3c(Cl)ccc(F)c3Cl)cc2s1 (centres unmarked) [Example 96, 1-{6-[1-(2,6-dichloro-3-fluorophenyl)ethoxy]-5-fluoro-1,3-benzothiazol-2-yl}-3-[2-(methylamino)ethyl]urea]
IC50 (c-MET): < 100 nM | IC50 (MKN45 cells; [1]): 500 to 10000 nM

CC(Oc1cc2sc(NC(=O)NCCN(C)C(=O)OC(C)(C)C)nc2cc1F)c1c(Cl)ccc(F)c1Cl (centres unmarked) [Example 95]
IC50 (c-MET): < 100 nM | IC50 (MKN45 cells; [1]): 500 to 10000 nM

CC(Oc1cc2sc(NC(=O)NCCN)nc2cc1F)c1c(Cl)ccc(F)c1Cl (single isomer, unassigned) [Example 89, 1-(2-aminoethyl)-3-{6-[(1R*)-1-(2,6-dichloro-3-fluorophenyl)ethoxy]-5-fluoro-1,3-benzothiazol-2-yl}urea]
IC50 (c-MET): < 100 nM | IC50 (MKN45 cells; [1]): 500 to 10000 nM

CC(Oc1cc2sc(NC(=O)NCCCN3CCCC3=O)nc2cc1F)c1c(Cl)ccc(F)c1Cl (centres unmarked) [Example 78, 1-{6-[1-(2,6-dichloro-3-fluorophenyl)ethoxy]-5-fluoro-1,3-benzothiazol-2-yl}-3-[3-(2-oxopyrrolidin-1-yl)propyl]urea]
IC50 (c-MET): < 100 nM | IC50 (MKN45 cells; [1]): 500 to 10000 nM

CC(Oc1cc2sc(NC(=O)NCCN3CCCC3)nc2cc1F)c1c(Cl)ccc(F)c1Cl (single isomer, unassigned) [Example 85, 1-{6-[(1R*)-1-(2,6-dichloro-3-fluorophenyl)ethoxy]-5-fluoro-1,3-benzothiazol-2-yl}-3-[2-(pyrrolidin-1-yl)ethyl]urea]
IC50 (c-MET): < 100 nM | IC50 (MKN45 cells; [1]): < 500 nM
